# Test results as given in patent US20090258873A1, “Novel tetrahydropyridothiophenes” (priority 2005, published 2009).
# What was measured:
# [1] = tested on: RKO (RKOp27) human colon adenocarcinoma cells; test: Alamar Blue cell viability assay, anti-proliferative/cytotoxic activity on proliferating RKOp27 cells; format: cell-based; conditions: no Ponasterone A, 72 hours incubation, read-out: IC50 RKO p27 uninduced (proliferating)
# Description: The anti-proliferative I cytotoxic activity of the compounds described herein, can be tested on subclones of RKO (RKOp27) human colon adenocarcinoma cells (Schmidt et al., Oncogene 19, 2423-2429; 2000) using the Alamar Blue cell viability assay (described in O'Brien et al. Eur J Biochem 267, 5421-5426, 2000). The compounds are dissolved as 20 mM solutions in dimethylsulfoxide (DMSO) and subsequently diluted in semi-logarithmic steps. DMSO dilutions are further diluted 1:100 into Dulbecco's modified Eagle's medium (DMEM) containing 10% fetal calf serum to a final concentration twice as much as the final concentration in the test. RKO subclones are seeded into 96 well flat bottom plates at a density of 5000 cells per well in a volume of 50 μl per well. 24 hours after seeding the 50 μl each of the compound dilutions in DMEM medium are added into each well of the 96 Well plate. Each compound dilution is tested as quadruplicates. Wells containing untreated control cells are filled with 50 μl DMEM medium containing 1% DMSO. The cells are then incubated with the substances for 72 hours at 37° C. in a hunified atmosphere containing 5% carbon dioxide. To determine the viability of the cells, 10 μl of an Alamar Blue solution (Biosource) are added and the fluorescence is measured at an extinction of 544 nm and an emission of 590 nm. For the calculation of the cell viability the emission value from untreated cells is set as 100% viability and the emission rates of treated cells are set in relation to the values of untreated cells. Viabilities are expressed as % values.
# The corresponding IC50 values of the compounds for anti-proliferative/cytotoxic activity are determined from the concentration-effect curves.
# Representative IC50 values for anti-proliferation/cytotoxicity determined in the mentioned assay follow from the following table A, in which the numbers of the compounds correspond to the numbers of the examples.
# [2] = tested on: RKO colon adenocarcinoma cells (RKOp27) arrested by ectopic p27Kip1; test: Alamar Blue cell viability assay on RKOp27 cells arrested by p27Kip1 expression induced with Ponasterone A (cell cycle specific mode of action); format: cell-based; conditions: Homo sapiens, RKOp27 cells arrested by p27Kip1 induced with 10 μM Ponasterone A, 72 hours incubation, read-out: IC50 RKO p27 induced (arrested)
# Description: To determine the cell cycle specific mode of action, subclones of RKO colon adenocarcinoma cells (RKOp27 or RKOp21 as described by Schmidt et al. in Oncogene 19, 2423-2429; 2000) are seeded into 96 well flat bottom plates at a density of 15000 cells per well in a volume of 50 μl per well in DMEM growth medium with 10% FCS containing 10 μM Ponasterone A. 24 hours after seeding the 50 μl each of the compound dilutions in DMEM medium are added into each well of the 96 Well plate. Each compound dilution is tested as quadruplicates. Wells containing untreated control cells are filled with 50 μl DMEM medium containing 1% DMSO. The cells are then incubated with the substances for 72 hours at 37° C. in a humidified atmosphere containing 5% carbon dioxide. To determine the viability of the cells, 10 μl of an Alamar Blue solution (Biosource) are added and the fluorescence was measured at an extinction of 544 nm and an emission of 590 nm. For the calculation of the cell viability the emission value from untreated cells is set as 100% viability and the emission rates of treated cells are set in relation to the values of untreated cells. Viabilities are expressed as % values. Viability is compared of proliferating cells grown in the absence of the inducer Ponasterone A, versus viability of cells arrested by the expression of ectopic p27Kip1 induced by Ponasterone A.
SMILES,IC50 [2],IC50 [1]
"N#Cc1c(NC(=O)CCc2ccco2)sc2c1CCN(C(=O)CCn1ccnc1)C2 [Example 15, N-[3-Cyano-6-(3-Imidazo-1-yl-propanoyl)-4,5,6,7-tetrahydro-thieno[2,3-c]pyridin-2-yl]-3-furan-2-yl-propionamide]",> 100 µM,≤ 0.3 µM
"CN1CCN(CCC(=O)N2CCc3c(sc(NC(=O)CCc4ccccc4)c3C#N)C2)CC1 [Example 17, N-[3-Cyano-6-[3-(4-methyl-piperazin-1-yl)-propanoyl]-4,5,6,7-tetrahydro-thieno[2,3-c]pyridin-2-yl]-3-phenyl-propionamide]",≥ 40 µM,0.3 to 2 µM
"N#Cc1c(NC(=O)CCc2ccccc2)sc2c1CCN(C(=O)CCN1CCOCC1)C2 [Example 18, N-[3-Cyano-6-(3-morpholin-4-yl-propanoyl)-4,5,6,7-tetrahydro-thieno[2,3-c]pyridin-2-yl]-3-phenyl-propionamide]",> 100 µM,0.3 to 2 µM
"N#Cc1c(NC(=O)CCc2ccccc2)sc2c1CCN(C(=O)Cc1ccncc1)C2 [Example 20, N-[3-Cyano-6-(2-pyridin-4-yl-ethanoyl)-4,5,6,7-tetrahydro[2,3-c]pyridin-2-yl]-3-phenyl-propionamide]",> 100 µM,≤ 0.3 µM
Cc1nc2ccccc2n1CCC(=O)N1CCc2c(sc(NC(=O)CCc3ccccc3)c2C#N)C1 [Example 21],> 100 µM,0.3 to 2 µM
"Cc1cn(CC(=O)N2CCc3c(sc(NC(=O)CCc4ccccc4)c3C#N)C2)c(C)n1 [Example 43, N-{3-Cyano 6-[2-(2,4-dimethyl-imidazol-1-yl)-ethanoyl]-4,5,6,7-tetrahydro-thieno[2,3-c]pyridin-2-yl}-3-phenyl-propionamide]",≥ 40 µM,0.3 to 2 µM
"N#Cc1c(NC(=O)CCC2CCCCC2)sc2c1CCN(C(=O)Cc1ccccn1)C2 [Example 53, N-[3-Cyano-6-(2-pyridin-2-yl-ethanoyl)-4,5,6,7-tetrahydro-thieno[2,3-c]pyridin-2-yl]-3-cyclohexyl-propionamide]",> 100 µM,≤ 0.3 µM
N#Cc1c(NC(=O)CCC2CCCCC2)sc2c1CCN(C(=O)CCn1ccnc1)C2 [Example 58],> 100 µM,0.3 to 2 µM

# The next lines start with results.
IC50 [2],SMILES,IC50 [1]
> 100 µM,"N#Cc1c(NC(=O)CCc2ccccc2)sc2c1CCN(C(=O)CCn1ccnc1)C2 [Example 16, N-[3-Cyano-6-(3-imidazol-1-yl-propanoyl)-4,5,6,7-tetrahydro-thieno[2,3-c]pyridin-2-yl]-3-phenyl-propionamide]",≤ 0.3 µM
> 100 µM,"N#Cc1c(NC(=O)CCc2ccccc2)sc2c1CCN(C(=O)Cn1ccnc1)C2 [Example 19, N-[3-Cyano-6-(2-imidazol-1-yl-ethanoyl)-4,5,6,7-tetrahydro-thieno[2,3-c]pyridin-2-yl]-3-phenyl-propionamide]",0.3 to 2 µM
> 100 µM,"CCCC(=O)N1CCc2c(sc(NC(=O)CCc3ccccc3)c2C#N)C1 [Example 28, N-(6-Butyryl-3-cyano-4,5,6,7-tetrahydro-thieno[2,3-c]pyridin-2-yl)-3-phenyl-propionamide]",≤ 0.3 µM
> 100 µM,"N#Cc1c(NC(=O)CCc2ccccc2)sc2c1CCN(C(=O)CCc1ccccn1)C2 [Example 30, N-[3-Cyano-6-(3-pyridin-2-yl-propanoyl)-4,5,6,7-tetrahydro-thieno[2,3-c]pyridin-2-yl]-3-phenyl-propionamide]",≤ 0.3 µM
≥ 10 µM,"Cc1nccn1CCC(=O)N1CCc2c(sc(NC(=O)CCc3ccccc3)c2C#N)C1 [Example 33, N-{3-Cyano-6-[3-(2-methyl-imidazol-1-yl)propanoyl]-4,5,6,7-tetrahydro-thieno[2,3-c]pyridin-2-yl}-3-phenyl-propionamide]",0.3 to 2 µM
≥ 10 µM,"Cn1ccnc1CCC(=O)N1CCc2c(sc(NC(=O)CCc3ccccc3)c2C#N)C1 [Example 35, N-{3-Cyano-4-[3-(1-methyl-1H-imidazo-2-yl)-propanoyl]-4,5,6,7-tetrahydro-thieno[2,3-c]pyridin-2-yl}-3-phenyl-propionamide]",≤ 0.3 µM
> 100 µM,"Cc1nccn1CC(=O)N1CCc2c(sc(NC(=O)CCc3ccccc3)c2C#N)C1 [Example 38, N-{3-Cyano-6-[2-(2-methyl-imidazol-1-yl)-ethanoyl]-4,5,6,7-tetrahydro-thieno[2,3-c]pyridin-2-yl}-3-phenyl-propionamide]",≤ 0.3 µM
> 100 µM,"N#Cc1c(NC(=O)CCc2ccccc2)sc2c1CCN(C(=O)CCc1ccncc1)C2 [Example 39, N-[3-Cyano-6-(3-pyridin-4-yl-propanoyl)-4,5,6,7-tetrahydro-thieno[2,3-c]pyridin-2-yl]-3-phenyl-propionamide]",≤ 0.3 µM
> 100 µM,"Cc1cn(CC(=O)N2CCc3c(sc(NC(=O)CCc4ccccc4)c3C#N)C2)cn1 [Example 41, N-{3-Cyano-6-[2-(4-methyl-imidazol-1-yl)-ethanoyl]-4,5,6,7-tetrahydro-thieno[2,3-c]pyridin-2-yl}-3-phenyl-propionamide]",≤ 0.3 µM
≥ 10 µM,"Cc1cn(CCC(=O)N2CCc3c(sc(NC(=O)CCc4ccccc4)c3C#N)C2)cn1 [Example 45, N-[3-Cyano-6-[3-(4-methyl-imidazol-1-yl)-propanoyl]-4,5,6,7-tetrahydro-thieno[2,3-c]pyridin-2-yl]-3-phenyl-propionamide]",0.3 to 2 µM
